Structures are written as SMILES.

These results are taken from patent publication US6809084B1, “Compositions containing polysaccharides from phellinus linteus and methods for treating diabetes mellitus using same” (Korea Research Institute of Bioscience and Biotechnology, priority 2000, dated 2004).

The test system of the assay is ICR mouse. Briefly: Streptozotocin-induced diabetes in ICR mice. Particulars: 60 mg/kg three times i.p., normal ICR mouse 200 mg/dl. The assay is classed as in vivo. On the procedure: FIG. 7 illustrates the effect of PL on experimental group with streptozotocin-induced diabetes. Blood glucose values were measured with Accutrend sensor system (Boehringer Mannheim, Germany).
Streptozotocin, which can induce Insulin-dependent diabetes mellitus, destroys selectively pancreatic beta cells, and diabetes mellitus induced :by streptozotocin is similar with diabetes naturally occurring in NOD mice. […] ICR mouse received 60 mg/kg of streptozotocin three times with intraperitoneal injection. Streptozotocin was used in solution of citrate buffer (pH 4.2, 4° C.). The blood glucose level of ICR mouse treated with streptozotocin was 450 mg/dl, whereas that of normal ICR mouse without streptozotocin was 200 mg/dl (FIG. 7).

Turning to `CN(N=O)C(=O)N[C@H]1C(O)O[C@H](CO)[C@@H](O)[C@@H]1O` (mixture of isomers) [streptozotocin], the blood glucose level stood at 450 mg/dL.
